Results on one compound are retold here after US20250152605A1, “METHOD AND DRUG FOR TREATING NEURONAL CEROID LIPOFUSCINOSIS” (priority 2021, published 2025).

The subject of test [1] is mouse neural stem cells. Description: qRT-PCR of autophagy and lysosome-related genes in mouse neural stem cells. In kind it is cell-based. The note with it: 6 hours. The procedure:
(§1) The cells in the cell-culture dish were collected, extracted using AxyPrep Total RNA Mini Prep Kit or Qiagen AxyPrep Total RNA Mini Prep Kit, and the extracted RNA concentration is measured using Nanodrop; the extracted mRNA was reverse transcribed into cDNA by Transgen's EasyScript® One-Step gDNA Removal and cDNA Synthesis SuperMix and the primers used for reverse transcription were Oligo dT primers; the completion of reverse transcription followed by qRT-PCR reaction through PerfectStart™ Green qPCR SuperMix to detect the expression of the target gene; the qRT-PCR reaction was performed on the Bio-Rad CFX96 Real-Time PCR system; see Table 2 and Table 3 for the 20 μL qRT-PCR reaction system and reaction procedures; data analysis was performed in Prism 7 software using the 2^−ΔΔCt process with GAPDH as internal reference for relative quantification of the expression of the target gene.
After treating primary (a) neural stem cells and (b) neurons of Cln3 KO) mice for 6 hours, the mRNA was extracted from the cells, reverse-transcribed into cDNA, and transcription levels of autophagy- and lysosome-related genes were detected using qRT-PCR (n=3).
It was speculated from this that the known target FXR of Compound G was expressed at low or no levels in neural lineage cells. […]
Background: In qPCR the cycle at which signal appears reflects the starting amount.

Test [2] concerns CLN3^Δex7/8 neurons. Nature of the test: Intracellular relative ATP content (Cell Titer Glo). In kind it is cell-based, human. The note with it: same number of CLN3^Δex7/8 neurons. The procedure:
Neural stem cells or neurons were digested into single cells and were counted using a hemocytometer. The cell suspension was then diluted to the same cell concentration (10^5˜10^6/mL). 100 μL of cell suspension was taken out into a white 96-well analysis plate, and 100 μL of CellTiter-Lumi™ Steady Plus reagent that had been equilibrated to room temperature was added, shaken to mix, and incubated at room temperature for 15 minutes. The chemiluminescence intensity of the sample was then read using a multifunctional microplate reader to indicate the intracellular relative ATP content.
To test the effect of compound G on mitochondrial homeostasis in CLN3^Δex7/8 neurons, fluorescently labeled mitochondrial outer membrane protein OMP25-GFP was overexpressed in neurons, and the morphological changes of mitochondria were observed by laser confocal microscope. […] The amount of ATP generation in the same number of neurons was tested using Cell Titer Glo reagent.
Background: Cellular ATP, detected with luciferase, serves as a proxy for viable cell number.

Test [3] deals with cathepsin D. Nature of the test: Intracellular cathepsin D activity. In kind it is cell-based, human. The note with it: CLN3^Δex7/8 neurons. The procedure: The activity of intracellular protease cathepsin D was measured using Abcam's Cathepsin D Activity Assay kit. Each sample was prepared in more than 3 replicates. […]
Test [4] has as its system Cln3 KO mice. Nature of the test: Open field test. Type of test: in vivo, mouse. The note with it: 4-5 months old Cln3 KO mice, within 10 minutes. The procedure: Open field tests were conducted on mice using blue boxes measuring 50 cm×50 cm×40 cm, with specific steps as follows: the mice to be tested were kept in single cages for more than 1 week to adapt to the environment; the central 25 cm×25 cm area of the box was divided into a central area. The mice were placed gently in the central area facing away from the experimenter, and the video device was started to record the movement track of the mice within 10 minutes; the boxes were thoroughly wiped twice with 75% ethanol to eliminate the odor of the mouse, and then the next mouse was placed for movement track record within 10 minutes; the movement track of mice was analyzed with the Noldus software, and the analysis indicators included the movement speed and total movement distance of mice. The number of times the mice stood upright on their hind legs within 10 minutes was manually counted by the experimenter.
[…] experiments were conducted on 4-5 months old wild-type mice, Cln3 KO mice, and Compound G-treated Cln3 KO mice. The mouse was gently placed in the mine field, it was allowed to move freely, and the route, distance and speed of its movement within 10 minutes were recorded.

The subject of test [5] is p62. Description: p62 transcription (qRT-PCR) and p62 protein level in human neurons. Type of test: cell-based. The procedure:
as §1
FIG. 41: Compound G increased intracellular p62 protein levels. (a) 24 hours after treatment of human neurons with Compound G or after KEAP1 knockdown, transcriptional levels of the p62 gene were detected by qRT-PCR (n=3). (b) 24 hours after treatment of human neurons with Compound G or after KEAP1 knockdown, intracellular p62 protein levels were detected by Western blotting and band intensity statistics (n=3) were performed. […]

The test system of test [6] is CLN3^Δex7/8 human neurons. Nature of the test: qRT-PCR of autophagy-related and lysosomal genes in human neurons. In kind it is cell-based. The note with it: 6 hours. On the procedure:
as §1
The effect of Compound G on the transcription level of the autophagy-related genes and the lysosomal genes was further detected in the induced CLN3^Δex7/8 human neural stem cells and neurons.

For test [7], the system named is Cln3 KO mice. Description: Immunohistochemical staining of SCMAS in Cln3 KO mouse brain. The note with it: Cln3 KO mice treated from 21 days to 2 months of age. Type of test: in vivo.

In the case of `C/C=C1\C(=O)C[C@H]2[C@@H]3CCC4=CC(=O)CC[C@]4(C)[C@H]3CC[C@]12C` [Compound G, (Z)-guggulsterone], the “expression level of the autophagy and lysosome-related genes” value in test [1] was “no significant change”. Further, the “capacity of ATP generation” value in test [2] was “significantly increased”. Also, the “activity of cathepsins D (fluorescence intensity)” value in test [3] is reported as “significantly increased”. In test [4], the “distance of the movement in the field” value was “improve the distance and the speed of the movement”; the “speed of the movement in the field” value is “improve the distance and the speed of the movement”. Also, in test [5] (24 hours, Western blotting), the p62 protein level entry is given as “increase the p62 protein level”. Moreover, in test [5] (incubation for 24 hours, qRT-PCR), the “transcription level of p62” value is given as “significantly increase”. The “expression of the autophagy-related genes or the lysosomal genes overall” value in test [6] was “did not significantly increase”. For the same compound, the “substances (SCMAS) abnormally stored in the brains” value in test [7] is listed as “alleviate the amount of the substances abnormally stored in the brains of Cln3 KO mice to a certain extent”.
